Legend:
[1] = molecular target: Angiopoietin-1 receptor (Homo sapiens, UniProt Q02763); assay: Inhibition of Tie2 kinase by autophosphorylation assay; assay type: functional
[2] = Inhibition of P38 kinase; design: species or system Homo sapiens
[3] = system: Mus musculus; assay: Reduction in bFGF-induced angiogenesis in Matrigel mouse model at 25 mg/kg, ip bid; assay type: functional; design: scale not given: the % may be the effect or the level left; settings: route intraperitoneal
[4] = system: Mus musculus; assay: Reduction in bFGF-induced angiogenesis in Matrigel mouse model at 50 mg/kg, ip bid; assay type: functional; design: scale not given: the % may be the effect or the level left; settings: route intraperitoneal
[5] = system: MOPC 315; assay: Efficacy in mouse MOPC315 cells xenografted mouse assessed as delay in tumor growth; assay type: functional, cell-based

Angiopoietin-1 receptor, sequence (Q02763 whole entry): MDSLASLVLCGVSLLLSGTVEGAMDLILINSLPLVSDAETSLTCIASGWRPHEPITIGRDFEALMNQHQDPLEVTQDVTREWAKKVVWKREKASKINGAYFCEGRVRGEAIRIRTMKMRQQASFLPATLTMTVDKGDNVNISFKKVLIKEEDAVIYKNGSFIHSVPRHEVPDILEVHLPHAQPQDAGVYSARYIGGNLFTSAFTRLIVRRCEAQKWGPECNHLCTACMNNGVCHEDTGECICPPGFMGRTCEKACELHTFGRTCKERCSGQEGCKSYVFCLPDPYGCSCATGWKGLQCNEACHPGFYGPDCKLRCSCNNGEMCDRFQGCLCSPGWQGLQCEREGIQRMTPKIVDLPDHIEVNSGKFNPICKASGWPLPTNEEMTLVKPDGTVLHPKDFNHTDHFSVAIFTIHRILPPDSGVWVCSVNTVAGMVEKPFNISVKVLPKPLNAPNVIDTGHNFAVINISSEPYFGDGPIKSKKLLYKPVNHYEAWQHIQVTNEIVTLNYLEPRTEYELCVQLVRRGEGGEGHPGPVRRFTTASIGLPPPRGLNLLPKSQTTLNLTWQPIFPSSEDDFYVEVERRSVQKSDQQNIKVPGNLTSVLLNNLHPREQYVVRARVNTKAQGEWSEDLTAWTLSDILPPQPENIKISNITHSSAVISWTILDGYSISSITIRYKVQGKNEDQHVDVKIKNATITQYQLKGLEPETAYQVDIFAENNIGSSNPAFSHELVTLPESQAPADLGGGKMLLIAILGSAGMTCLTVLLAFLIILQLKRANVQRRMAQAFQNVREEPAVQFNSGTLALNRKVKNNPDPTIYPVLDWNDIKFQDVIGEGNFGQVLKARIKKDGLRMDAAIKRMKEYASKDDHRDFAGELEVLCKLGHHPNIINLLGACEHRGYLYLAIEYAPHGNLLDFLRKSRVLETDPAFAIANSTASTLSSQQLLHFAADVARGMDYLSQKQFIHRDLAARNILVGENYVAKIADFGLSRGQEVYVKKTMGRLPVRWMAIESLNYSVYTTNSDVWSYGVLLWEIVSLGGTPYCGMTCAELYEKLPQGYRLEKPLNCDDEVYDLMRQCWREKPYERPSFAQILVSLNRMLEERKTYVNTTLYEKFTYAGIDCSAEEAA

IC50 [1] [µM]	IC50 [2] [µM]	SMILES	Activity [3] [%]	Activity [4] [%]	Activity [5]
20	16	COc1ccc2cc(-c3nc(-c4ccc([S+](C)[O-])cc4)n(C)c3-c3ccncc3)ccc2c1 (stereo not given)			
5.5	16.5	C[S+]([O-])c1ccc(-c2nc(-c3ccc4cc(-c5ccccc5)ccc4c3)c(-c3ccncc3)[nH]2)cc1 (stereo not given)			
5.37	> 16	CCn1c(-c2ccc([S+](C)[O-])cc2)nc(-c2ccncc2)c1-c1ccc2cc(OC)ccc2c1 (stereo not given)			
0.3	0.3	C[S+]([O-])c1ccc(-c2nc(-c3ccc4ccccc4c3)c(-c3ccncc3)[nH]2)cc1 (stereo not given)			
0.437	> 16	CCCn1c(-c2ccc([S+](C)[O-])cc2)nc(-c2ccncc2)c1-c1ccc2cc(OC)ccc2c1 (stereo not given)			
3.89	> 16	COc1ccc2cc(-c3c(-c4ccncc4)nc(-c4ccc([S+](C)[O-])cc4)n3CC(C)C)ccc2c1 (stereo not given)			
0.339	4.57	C[S+]([O-])c1ccc(-c2nc(-c3ccc4cc(Br)ccc4c3)c(-c3ccncc3)[nH]2)cc1 (stereo not given)			
0.219	0.741	Cc1ccc2cc(-c3nc(-c4ccc([S+](C)[O-])cc4)[nH]c3-c3ccncc3)ccc2c1 (stereo not given)			

SMILES	IC50 [1] [µM]	IC50 [2] [µM]	Activity [3] [%]	Activity [4] [%]	Activity [5]
COc1ccc2cc(-c3c(-c4ccncc4)nc(-c4ccc([S+](C)[O-])cc4)n3C)ccc2c1 (stereo not given)	0.06	16	5	30	
COc1ccc2cc(-c3nc(-c4ccc([S+](C)[O-])cc4)[nH]c3-c3ccncc3)ccc2c1 (stereo not given)	0.25	50	41	70	Dose-dependent effect

Source: ChEMBL document CHEMBL1149658, “Pyridinylimidazole inhibitors of Tie2 kinase” (Bioorg Med Chem Lett, 2007)
